The source of these data is patent US20220386582A1, “METHOD AND DEVICE TO TRAP ACARIDS” (DOMOBIOS, priority 2015, published 2022).

One assay has as its system Dermatophagoides farinae. As to the kind of experiment: Mini-mattress trap: attraction capabilities of attracting solutions sprayed on felt. Type of assay: in vivo. On the procedure:
(§1) Rearing: The species studied were Dermatophagoides pteronyssinus and Dermatophagoides farinae, house dust mite common in mattresses in Eurasia. Mites are reared in Petri dishes and fed with human skin flakes (skin and whiskers obtained by cleaning electric […]). All mites were reared together under defined conditions (20° C. and 75% relative humidity). The experiments took place in a room kept at 20° C. and 40% relative humidity. Aim of the experiments: The aim was to test the trap in condition similar to the conditions that will be met by the user of the trap. Materials and methods: The mattresses were built at a smaller scale (15× reduction) than usual mattresses. These mini-mattresses are made in polyurethane and covered by a cover in cotton. They were infested with mites since at least 3 months. The fabric was a felt of 20 mg/cm^2 and is a rectangle of 10 cm×20 cm. It was placed on the mini-mattress. Then the attracting solution was sprayed on the fabric with a spray bottle. The fabric was left in place on the mattress during one hour. During this time, the mites moved in the felt. It is very difficult to count directly the mites hidden in the mattress and in the fabric. Therefore, we used a Berlèse funnel which is a device that is usually used to separate insects from litter. Here, it was used to separate the mites from their mattress or from the fabric. The Berlèse funnel uses a light bulb to heat and dry the mattress, thus driving the mites downwards through a screen and into a collecting jar containing some food and some water. […] They are attracted by a source of moisture and the smell of food. The mattress or blanket were therefore placed in the funnel (FIG. 2). The mites went downwards in the direction of the jar, then in the jar. The harvest of the jar containing the mites took place after one day. Mites had then 24 hours to migrate to the jar collector. As a substantial proportion of the population is immobile (moulting mites), trapping is less efficient than it would be otherwise and estimate of population size that is trapped are likely to be biased. To avoid this bias and make a proper assessment of the populations in infested mattresses, mattresses were carefully brushed with a soft brush at the end of the manipulation meaning that immobile mites and eggs also fall into the funnel. Fabric was carefully brushed too. The Berlèze funnel was rinsed with ethanol. Thus, mites still on the inner wall of the funnel were driven by ethanol in the jar collector. At the end of the experiment, the jar contained: the food used as attracting to mites, a small amount of water also used for attracting, mites, and ethanol. The jar was emptied into a Petri dish and we counted mites under binocular. Counting of mites was made under binocular microscope (magnification 10×). The set-up is illuminated with a cold lamp (KL 1500 LCD, Schott ●). The felt was sprayed with different attracting compositions: a solution of lavandulol, a solution of Tween 60, a combination of lavandulol and Tween 60, a solution of citral, and the attracting solution commercialized under the brand name Acar'up were compared at various dilutions.

The test system of assay [1] is Dermatophagoides pteronyssinus. The description is as above. The assay is classed as in vivo. As for the experimental part:
as §1

For assay [2], the system named is Dermatophagoides pteronyssinus. The experiment in a line: Binary choice test in Petri dish, colored felt with attracting agent versus white felt with water. Type of assay: in vivo. As for the experimental part:
Aim of the experiments: All experiments are tests of binary choice aiming to determine the preference of mites and the place where they prefer to stay (at least for 30 min).
Rearing: The species studied was Dermatophagoides pteronyssinus, a dust mite common in mattresses in Eurasia. Mites are reared in Petri dishes and fed with human skin flakes (skin and whiskers obtained by cleaning electric shavers). All mites were reared together under defined conditions (20° C. and 75% relative humidity). The experiments took place in a room kept at 20° C. and 40% relative humidity.
Materials and methods: A group of mites (20<n<40) was placed in the center of a Petri dish (ø5.5 cm) around which two semi-circles of felt were placed (see FIG. 1). The pieces of felts were 70 mg/cm^2, their thickness was 2 mm. One felt is the control (control felt), for instance impregnated with water; the other felt is the felt with the tested item, for instance the felt that is impregnated with a chemical compound that is tested.
Mites move spontaneously towards one of the two felts.
Observations and counting of mites was made under binocular microscope (magnification 10×). The set-up is illuminated with a cold lamp (KL 1500 LCD, Schott ●), the lighting is symmetric and the light intensity was 50Klux. The experimental conditions were controlled in the room (T° C.: 19-22° C. and RH 40%). […]

The test system of a further assay is mites. The conditions noted are these: washing at low temperature, final concentration of 0.03% benzyl benzoate (Bischoff et al 1998); cited from earlier work.
[3] abbreviates: Dilution 10^−6 (* mixture of a lavandulol solution at 10^−6 and a Tween 60 solution at 10^−6).

Regarding `CC(C)=CCCC(C)=CC=O` [Citral, 3,7-dimethyl-2,6-octadienal, reference compound], the “attraction capabilities, percentage of mites” value in the assay with Dermatophagoides farinae (Dilution 10^−1) stood at 49%; with Dermatophagoides farinae (Dilution 10^−3) it was 36%; in the assay on Dermatophagoides farinae (setting [3]), 48%; in the assay with Dermatophagoides farinae (Dilution 10^−9) it was 43%; in the assay with Dermatophagoides farinae (Dilution Undiluted), 5%; in assay [1] (Dilution 10^−3), 23%. Further, the “attraction capabilities, percentage of mites” value worked out at 76% in assay [1] (setting [3]), 56% in assay [1] (Dilution 10^−9) and 3% in assay [1] (Dilution Undiluted). Also, the “Mean (choice of mites for the tested felt)” value in assay [2] (blue felt + 1 μl attracting agent (dil 10^−6) versus white felt + 1 μl H2O, 18 trials) turned out to be 0.84. For the same compound, the “migration of the mites toward the blue felt” value in assay [2] (blue felt in combination with citral) is 84%.
With `O=C(OCc1ccccc1)c1ccccc1` [benzyl benzoate], the “mite control in delicate garments” value in the assay with mites is listed as “possible to achieve mite control”.
“Polyethylene glycol sorbitan monostearate [Tween 60]”: the “attraction capabilities, percentage of mites” value stood at 54% in the assay on Dermatophagoides farinae (Dilution 10^−3); 81% in the assay with Dermatophagoides farinae (setting [3]); 39% in the assay with Dermatophagoides farinae (Dilution 10^−9); 7% in the assay on Dermatophagoides farinae (Dilution Undiluted); 70% in assay [1] (Dilution 10^−3); 78% in assay [1] (setting [3]). Further, the “attraction capabilities, percentage of mites” value in assay [1] (Dilution 10^−9) is recorded as 57%; in assay [1] (Dilution Undiluted), 14%.
